From patent US7897602B2, “Indolinone compounds as kinase inhibitors” (Development Center for Biotechnology, priority 2009, dated 2011) come the findings set out here.

One assay concerns the target T1, VEGFR2 kinase (Homo sapiens, UniProt P35968).
T1 construct: recombinant N-terminal 6×His-tagged VEGFR2 kinase domain construct expressed by baculovirus; 6xHis (N); made in house
The experiment in a line: VEGFR2 kinase assay (33P incorporation into Poly(Glu-Tyr)). The assay is classed as biochemical. The settings on record: 500 nM test compound; read-out: Inhibition at 500 nM (%) VEGFr-2. In short, it runs like this: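 Recombinant baculovirus-expressed N-terminal His6-tagged VEGFR2 kinase domain (6.25 ng) phosphorylated poly(Glu-Tyr) 4:1 with 100 μM ATP plus [33P]-γ-ATP in MOPS pH 7.0, 30 °C, 30 min. Test compound was at 500 nM (4% DMSO). Filter-retained radioactivity relative to DMSO control gave % inhibition.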

In a further assay the target is T2, Flt3 kinase (Homo sapiens, UniProt P36888).
T2 construct: recombinant N-terminal 6×His-tagged Flt3 kinase domain construct expressed from baculovirus; 6xHis (N); made in house
T2 sequence (P36888 610-943 limits assumed): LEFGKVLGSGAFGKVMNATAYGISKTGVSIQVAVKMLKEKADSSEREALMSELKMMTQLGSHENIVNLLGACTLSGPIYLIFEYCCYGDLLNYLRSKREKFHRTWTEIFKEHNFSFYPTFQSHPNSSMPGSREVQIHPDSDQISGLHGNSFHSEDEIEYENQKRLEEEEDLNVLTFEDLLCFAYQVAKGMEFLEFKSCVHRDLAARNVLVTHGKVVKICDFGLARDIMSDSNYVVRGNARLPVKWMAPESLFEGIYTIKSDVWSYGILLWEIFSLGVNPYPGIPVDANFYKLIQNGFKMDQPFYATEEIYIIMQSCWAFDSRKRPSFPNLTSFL
The experiment in a line: Flt3 kinase assay (33P incorporation into Poly(Glu-Tyr)). The format is biochemical. Conditions: 100 nM test compound; read-out: Inhibition at 100 nM (%) Flt-3. In short, it runs like this: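 Baculovirus-expressed His-tagged Flt3 kinase domain (5 ng) with Poly(Glu-Tyr) 4:1 substrate, 100 μM ATP plus [33P]-γ-ATP, in MOPS pH 7.0 buffer, 30 min at 30 °C. Compound tested at a single 100 nM concentration; filter-bound radioactivity counted and percent inhibition calculated relative to DMSO control.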

T1 sequence (P35968 834-1162 limits assumed): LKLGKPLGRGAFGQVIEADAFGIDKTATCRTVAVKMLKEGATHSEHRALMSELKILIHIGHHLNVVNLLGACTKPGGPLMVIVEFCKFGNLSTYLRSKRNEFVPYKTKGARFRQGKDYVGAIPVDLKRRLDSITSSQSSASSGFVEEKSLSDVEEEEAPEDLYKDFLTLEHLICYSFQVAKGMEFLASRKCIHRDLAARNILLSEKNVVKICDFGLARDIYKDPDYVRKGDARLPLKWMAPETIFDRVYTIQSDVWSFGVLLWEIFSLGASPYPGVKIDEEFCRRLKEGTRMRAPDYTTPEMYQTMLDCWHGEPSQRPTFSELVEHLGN

What is called inhibition is the relative decrease from the control value, in per cent. Regarding `O=C(O)CCc1c(/C=C2\C(=O)Nc3ccc(-c4cc5ccccc5s4)cc32)[nH]c2c1C(=O)CCC2` [DCB-70070, (Z)-5-(benzo[b]thiophen-2-yl)-3-((3-carboxyethyl-4-oxo-4,5,6,7-tetrahydro-1H-indol-2-yl)methylene)indolin-2-one], at VEGFR2 kinase, the inhibition at 0.5 µM turned out to be 45.5%. Further, on Flt3 kinase, the inhibition at 0.1 µM stood at 13.3%.
The corresponding values for `O=C(O)CCc1c(/C=C2\C(=O)Nc3ccc(S(=O)(=O)Cc4ccc(F)cc4)cc32)[nH]c2c1C(=O)CCC2` [DCB-70072, (Z)-5-(4-fluorobenzylsulfonyl)-3-((3-carboxyethyl-4-oxo-4,5,6,7-tetrahydro-1H-indol-2-yl)methylene)indolin-2-one] are 86% and -2.1%.
With `O=C(O)CCc1c(/C=C2\C(=O)Nc3ccc(NCc4ccccc4)cc32)[nH]c2c1C(=O)CCC2` [DCB-70132, (Z)-3-(2-((5-(benzylamino)-2-oxoindolin-3-ylidene)methyl)-4-oxo-4,5,6,7-tetrahydro-1H-indol-3-yl)propanoic acid], the inhibition at 0.5 µM on VEGFR2 kinase came to 15.8%. Moreover, the inhibition at 0.1 µM on Flt3 kinase came to 3.7%.
Taken in the same sequence, the figures for `O=C(O)CCc1c(/C=C2\C(=O)Nc3cc(F)ccc32)[nH]c2c1C(=O)CCC2` [DCB-70123, (Z)-6-fluoro-3-((3-carboxyethyl-4-oxo-4,5,6,7-tetrahydro-1H-indol-2-yl)methylene)indolin-2-one] were 90.8% and 61.1%.
With `CCOC(=O)CCc1c(/C=C2\C(=O)Nc3ccc(NC(=O)Nc4ccc(F)cc4)cc32)[nH]c2c1C(=O)CCC2` [DCB-70136, (Z)-ethyl 3-(2-((5-(3-(4-fluorophenyl)ureido)-2-oxoindolin-3-ylidene)methyl)-4-oxo-4,5,6,7-tetrahydro-1H-indol-3-yl)propanoate], at VEGFR2 kinase, the inhibition at 0.5 µM is 31.7%. In addition, the inhibition at 0.1 µM on Flt3 kinase stood at 39.3%.
Regarding `CCOC(=O)CCc1c(/C=C2\C(=O)Nc3ccc(NS(=O)(=O)c4ccccc4)cc32)[nH]c2c1C(=O)CCC2` [DCB-70102, (Z)-5-phenylsulfonamido-3-((3-(3-ethoxy-3-oxopropyl)-4-oxo-4,5,6,7-tetrahydro-1H-indol-2-yl)methylene)indolin-2-one], the inhibition at 0.5 µM at VEGFR2 kinase amounted to 68%. In addition, the inhibition at 0.1 µM on Flt3 kinase amounted to 75.9%.
`CCOC(=O)CCc1c(C=C2C(=S)Nc3cc(Br)ccc32)[nH]c2c1C(=O)CCC2` [DCB-70085, 6-bromo-3-((3-(3-ethoxy-3-oxopropyl)-4-oxo-4,5,6,7-tetrahydro-1H-indol-2-yl)methylene)indolin-2-thione]: at VEGFR2 kinase, the inhibition at 0.5 µM came out at 25.4%. Also, the inhibition at 0.1 µM on Flt3 kinase came out at 18.2%.
The corresponding values for `O=C(O)CCc1c(/C=C2\C(=O)Nc3cc(Br)ccc32)[nH]c2c1C(=O)CCC2` [DCB-70133, (Z)-3-(2-((6-bromo-2-oxoindolin-3-ylidene)methyl)-4-oxo-4,5,6,7-tetrahydro-1H-indol-3-yl)propanoic acid] are 54.2% and 6.1%.
As for `O=C(O)CCc1c(/C=C2\C(=O)Nc3ccc(NC(=O)c4ccccc4)cc32)[nH]c2c1C(=O)CCC2` [DCB-70097, (Z)-5-benazmido-3-((3-carboxyethyl-4-oxo-4,5,6,7-tetrahydro-1H-indol-2-yl)methylene)indolin-2-one], the inhibition at 0.5 µM on VEGFR2 kinase is 62.5%. The inhibition at 0.1 µM at Flt3 kinase worked out at 2%.
Consider `O=C(O)CCc1c(/C=C2\C(=O)Nc3ccc(NS(=O)(=O)c4ccccc4)cc32)[nH]c2c1C(=O)CCCC2` [DCB-70147, (Z)-3-(4-oxo-2-((2-oxo-5-(phenylsulfonamido)indolin-3-ylidene)methyl)-1,4,5,6,7,8-hexahydrocyclohepta[b]pyrrol-3-yl)propanoic acid], for which the inhibition at 0.5 µM on VEGFR2 kinase was 71.3%. The inhibition at 0.1 µM at Flt3 kinase was 43.8%.
The corresponding values for `CCOC(=O)CCc1c(/C=C2\C(=O)Nc3ccc(NCc4ccccc4)cc32)[nH]c2c1C(=O)CCC2` [DCB-70131, (Z)-ethyl 3-(2-((5-(benzylamino)-2-oxoindolin-3-ylidene)methyl)-4-oxo-4,5,6,7-tetrahydro-1H-indol-3-yl)propanoate] are 65.9% and 85.1%.
The corresponding values for `CCOC(=O)CCc1c(/C=C2\C(=O)Nc3ccc(-c4ccc(F)cc4)cc32)[nH]c2c1C(=O)CCC2` [DCB-70108, (Z)-5-(4-fluorophenyl)-3-((3-(3-ethoxy-3-oxopropyl)-4-oxo-4,5,6,7-tetrahydro-1H-indol-2-yl)methylene)indolin-2-one] are 14.1% and 11.8%.
Regarding `CCOC(=O)CCc1c(/C=C2\C(=O)Nc3ccc(NC(=O)c4ccc(F)cc4)cc32)[nH]c2c1C(=O)CCC2` [DCB-70074, (Z)-5-(4-fluorobenzamido)-3-((3-(3-ethoxy-3-oxopropyl)-4-oxo-4,5,6,7-tetrahydro-1H-indol-2-yl)methylene)indolin-2-one], the inhibition at 0.5 µM at VEGFR2 kinase was found to be 25%. The inhibition at 0.1 µM at Flt3 kinase was -1.3%.
Taken in the same sequence, the figures for `CCOC(=O)CCc1c(/C=C2\C(=O)Nc3ccc(NC(=O)Nc4ccc(Cl)c(C(F)(F)F)c4)cc32)[nH]c2c1C(=O)CCC2` [DCB-70137, (Z)-ethyl 3-(2-((5-(3-(4-chloro-3-(trifluoromethyl)phenyl)ureido)-2-oxoindolin-3-ylidene)methyl)-4-oxo-4,5,6,7-tetrahydro-1H-indol-3-yl)propanoate] were 82.9% and 33.8%.
For `CCOC(=O)CCc1c(C=C2C(=S)Nc3ccccc32)[nH]c2c1C(=O)CCC2` [DCB-70083, 3-((3-(3-ethoxy-3-oxopropyl)-4-oxo-4,5,6,7-tetrahydro-1H-indol-2-yl)methylene)indolin-2-thione], the inhibition at 0.5 µM on VEGFR2 kinase was 23.3%. Besides, on Flt3 kinase, the inhibition at 0.1 µM stood at 16%.
Taken in the same sequence, the figures for `CCOC(=O)CCc1c(/C=C2\C(=O)Nc3ccc(NS(=O)(=O)c4ccccc4)cc32)[nH]c2c1C(=O)CCCC2` [DCB-70146, (Z)-ethyl 3-(4-oxo-2-((2-oxo-5-(phenylsulfonamido)indolin-3-ylidene)methyl)-1,4,5,6,7,8-hexahydrocyclohepta[b]pyrrol-3-yl)propanoate] were 59.7% and 59.9%.
Taken in the same sequence, the figures for `CCS(=O)(=O)Nc1ccc2c(c1)/C(=C/c1[nH]c3c(c1CCC(=O)O)C(=O)CCC3)C(=O)N2` [DCB-70119, (Z)-5-ethylsulfonamido-3-((3-carboxyethyl-4-oxo-4,5,6,7-tetrahydro-1H-indol-2-yl)methylene)indolin-2-one] were 33.9% and -3.9%.
The corresponding values for `CC(=O)Nc1ccc2c(c1)/C(=C/c1[nH]c3c(c1CCC(=O)O)C(=O)CCC3)C(=O)N2` [DCB-70104, (Z)-5-acetamido-3-((3-carboxyethyl-4-oxo-4,5,6,7-tetrahydro-1H-indol-2-yl)methylene)indolin-2-one] are 73.8% and 13.9%.
For the compound `CCOC(=O)CCc1c(/C=C2\C(=O)Nc3ccc(NS(=O)(=O)CC)cc32)[nH]c2c1C(=O)CCC2` [DCB-70118, (Z)-5-ethylsulfonamido-3-((3-(3-ethoxy-3-oxopropyl)-4-oxo-4,5,6,7-tetrahydro-1H-indol-2-yl)methylene)indolin-2-one], at VEGFR2 kinase, the inhibition at 0.5 µM is 51.9%. On Flt3 kinase, the inhibition at 0.1 µM amounted to 12.7%.
The corresponding values for `CCOC(=O)CCc1c(/C=C2\C(=O)Nc3ccccc32)[nH]c2c1C(=O)CCC2` [DCB-70049, (Z)-3-((3-(3-ethoxy-3-oxopropyl)-4-oxo-4,5,6,7-tetrahydro-1H-indol-2-yl)methylene)indolin-2-one] are 79.7% and 90.2%.
The corresponding values for `CCS(=O)(=O)c1ccc2c(c1)/C(=C/c1[nH]c3c(c1CCC(=O)O)C(=O)CCC3)C(=O)N2` [DCB-70116, (Z)-5-ethylsulfonyl-3-((3-carboxyethyl-4-oxo-4,5,6,7-tetrahydro-1H-indol-2-yl)methylene)indolin-2-one] are 47.9% and 19.4%.
Taken in the same sequence, the figures for `O=C(O)CCc1c(/C=C2\C(=O)Nc3ccc(NS(=O)(=O)c4ccccc4)cc32)[nH]c2c1C(=O)CCC2` [DCB-70103, (Z)-5-phenylsulfonamido-3-((3-carboxyethyl-4-oxo-4,5,6,7-tetrahydro-1H-indol-2-yl)methylene)indolin-2-one] were 88.3% and 44.7%.
Regarding `CCOC(=O)CCc1c(/C=C2\C(=O)Nc3cc(-c4ccc(O)c(O)c4)ccc32)[nH]c2c1C(=O)CCC2` [DCB-70077, (Z)-6-(3,4-dihydroxyphenyl)-3-((3-(3-ethoxy-3-oxopropyl)-4-oxo-4,5,6,7-tetrahydro-1H-indol-2-yl)methylene)indolin-2-one], the inhibition at 0.5 µM at VEGFR2 kinase amounted to 89.7%. Moreover, at Flt3 kinase, the inhibition at 0.1 µM was 58.4%.
